Measured values as given in ChEMBL document CHEMBL1201862, “PubChem BioAssay data set” (2004).
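These data come from cells grown in 96-well plates and exposed to compound for 48 hours at five concentrations. At the GI50, growth is halved.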 Activity calls are given as the source filed them. No stated cut-off is given here; in the data, active = GI50 up to about 1.1 µM and inactive = higher.

Experiments:
Experiment in all cases: inhibition of tumour cell growth, NCI panel, 48 h
DMS-114 = test system: DMS-114
DMS-273 = test system: DMS-273
HOP-18 = test system: HOP-18
KM-20L2 = test system: KM-20L2
LXFL 529 = test system: LXFL 529
RXF 631 = test system: RXF 631
SNB-78 = test system: SNB-78
XF498 = test system: XF498

Measured: GI50

COc1ccc(NC(=O)CC(=O)N2N=C(N(CCC#N)c3ccccc3Cl)CC2c2ccccc2)cc1 (stereo not drawn)
inactive: DMS-114 > 100 µM | DMS-273 > 100 µM | HOP-18 > 100 µM | KM-20L2 > 100 µM | LXFL 529 > 100 µM | RXF 631 > 100 µM | SNB-78 > 100 µM | XF498 > 100 µM

Cc1cc(Cl)ccc1NC(=O)C1C(=O)N(c2ccc(Cl)cc2C)C(=O)/C1=N\NC(N)=S (stereo not drawn)
inactive: DMS-114 31.6 µM | DMS-273 46.3 µM | HOP-18 16.8 µM | KM-20L2 20.7 µM | LXFL 529 28.7 µM | RXF 631 45.6 µM | SNB-78 44 µM

Cc1cc(=O)n(-c2ccccc2C)c(C)n1
inactive: DMS-114 > 100 µM | DMS-273 > 100 µM | HOP-18 > 100 µM | KM-20L2 > 100 µM | LXFL 529 > 100 µM | RXF 631 > 100 µM | SNB-78 > 100 µM

Cn1cnc([N+](=O)[O-])c1Sc1nnc(C(F)(F)F)n1C
inactive: DMS-114 34.6 µM | DMS-273 25.6 µM | HOP-18 19.5 µM | LXFL 529 14.2 µM | RXF 631 17.6 µM | SNB-78 26.2 µM

C=CCCCN1CCCCC1=S
inactive: DMS-114 > 100 µM | DMS-273 > 100 µM | HOP-18 > 100 µM | KM-20L2 > 100 µM | RXF 631 > 100 µM | XF498 > 100 µM

CC1=C(C(=O)Nc2ccccc2C)C(c2ccco2)C(C(=O)Nc2ccccc2C)=C(C)N1C
inactive: DMS-114 > 100 µM | HOP-18 > 100 µM | LXFL 529 > 100 µM | RXF 631 81.5 µM | SNB-78 > 100 µM | XF498 > 100 µM

O=C(O)/C(Cl)=C(Cl)/C=N/NC(=O)c1cc2ccccc2cc1O
inactive: DMS-114 17.3 µM | DMS-273 6.84 µM | HOP-18 13.5 µM | KM-20L2 28.8 µM | LXFL 529 21.6 µM | RXF 631 26.4 µM | SNB-78 33.7 µM | XF498 35.4 µM
